Results published in paper PMC10410440, “Preclinical PK investigation of a novel IDO1/TDO dual inhibitor—SHR9146 in mouse plasma and tissues by LC-MS/MS” (Frontiers in Oncology, 2023).
Where two headings read alike, the source gives them in different places.

Assay: Plasma pharmacokinetics of SHR9146 in mice (LC-MS/MS, non-compartmental analysis)
Assay type: in vivo, ICR mice
Conditions: both sexes, ICR, mouse, plasma; for bioavailability: mice
Procedure: ICR mice with body weight 16–26 g were supplied by Shanghai Lingchang Biotechnology Co., Ltd. (animal breeding license number SCXK (Shanghai) 2013-0018) and housed at Shanghai Institute of Materia Medica, Chinese Academy of Sciences [animal use license number SYXK (Shanghai) 2015-0027]. The mice used in this study were fasted overnight for 12 h but had free access to water. Food was supplied 4 h post-dose. All experiments in this study were conducted in accordance with the Guidelines for the Care and Use of Laboratory Animals of Shanghai Institute of Materia Medica, Chinese Academy of Sciences.
A total of 30 mice were randomly assigned into five groups with equal numbers, males and females. One group was intravenously administrated with 5 mg/kg SHR9146 dissolved in […] plus 95% saline (adjusted pH to 4.0) under sterile conditions. The remaining four groups were administered respectively with a single dose of 20 , 40, or 80 mg/kg or multiple doses of 20 mg/kg twice daily for 7 days, by oral gavage of SHR9146 dissolved in 0.5% CMC-Na. Blood samples were obtained from the fossa orbitalis vein at 15 and 30 min and 1.0, 2.0, 4.0, 6.0, 8.0, 10.0, and 24.0 h after oral gavage administration. An additional 5-min time point was included for iv injection, as well as the pre-drug administration time points on the fifth, sixth, and seventh days in the multiple-dose group. The blood samples were collected in EDTA K2 anticoagulant blood collection tubes and centrifuged at 1,000 rpm for 5 min at 4°C. The supernatant plasma samples were thus produced.
Briefly as follows, an aliquot of 25-μL plasma or tissue homogenate was spiked with 100 μL of internal standard solution (1 μg/mL for plasma, 0.2 μg/mL for tissue homogenate) and 300 μL of methanol added and vortex mixed for 60 s. The mixture was then centrifuged at 14,000 rpm at 4°C for 5.0 min, and the supernatant was diluted with methanol–water (4:1, v/v) in a ratio of 1:9 for the plasma or 1:1 for the tissue homogenate, and 5 μL of the resulting solution was injected for the LC-MS/MS analysis.
The pharmacokinetic parameters of SHR9146 in mouse plasma were estimated by Phoenix 1.4 software using a non-compartmental model.
The mean concentration–time curves of SHR9146 in mouse plasma after a single oral gavage dose of 20, 40, or 80 mg/kg, or a single intravenous dose of 5 mg/kg, or the 7th-day steady state after twice-daily multiple oral doses of 20 mg/kg are shown in Figure 5 (Table S6).

[1] = oral, 40 mg/kg, 40 mg/kg i.g. single, read-out: plasma drug concentration, mean (n=6)
[2] = oral, 40 mg/kg, 40 mg/kg i.g. single, read-out: plasma drug concentration, individual mice #1-#6
[3] = oral, 80 mg/kg, 80 mg/kg i.g. single, read-out: plasma drug concentration, individual mice #1-#6
[4] = oral, 80 mg/kg, 80 mg/kg i.g. single, read-out: plasma drug concentration, mean (n=6)
[5] = po, 20 mg/kg, 20 mg/kg i.g. bid, 7 days (7th-day steady state), all mice (Totol, 3 male + 3 female)

concentration at 1 h [1]: 9.98 µg/mL
concentration at 2 h [1]: 4.92 µg/mL
concentration at 3 h [1]: 1.13 µg/mL
concentration at 4 h [1]: 4.35 µg/mL
concentration at 6 h [1]: 1.01 µg/mL
concentration at 8 h [2]: 0.582 µg/mL
concentration at 10 h [2]: 0.293 µg/mL
concentration at 24 h [2]: 0.136 µg/mL
concentration at 0.25 h (oral, 80 mg/kg, 80 mg/kg i.g. single, 0.25 h, read-out: plasma drug concentration, mean (n=6)): 6.13 µg/mL
concentration at 0.5 h [3]: 9.32 µg/mL
concentration at 0.5 h [4]: 11.3 µg/mL
concentration at 1 h [4]: 12.9 µg/mL
concentration at 2 h [4]: 8.93 µg/mL
concentration at 3 h [4]: 4.67 µg/mL
concentration at 4 h [4]: 8.95 µg/mL
concentration at 6 h [4]: 2.27 µg/mL
concentration at 8 h [4]: 1.2 µg/mL
concentration at 10 h [4]: 1.7 µg/mL
concentration at 24 h [3]: 0.096 µg/mL
AUC(0-inf) [5]: 24.4 µg·h/mL
Cmax at 7 days [5]: 10.7 ± 0.811 µg/mL
half-life at 7 days [5]: 1.01 h
AUC(0-t) (po, 20 mg/kg, 20 mg/kg i.g. bid, 7 days (7th-day steady state), all mice (Totol, 3 male + 3 female), read-out: AUC0-t): 24.2 µg·h/mL
Tmax (po, 20 mg/kg, 20 mg/kg i.g. bid, 7 days (7th-day steady state), all mice (Totol, 3 male + 3 female), read-out: Tmax): 0.833 ± 0.258 h
bioavailability (po, 20 mg/kg, 20 mg/kg i.g. single dose vs 5 mg/kg i.v., one value for the dose, read-out: F (absolute bioavailability)): 57.7%
AUC(0-inf) (po, 20 mg/kg, 20 mg/kg i.g. single dose, all mice (Totol, 3 male + 3 female)): 16.3 µg·h/mL
AUC(0-t) (po, 20 mg/kg, 20 mg/kg i.g. single dose, all mice (Totol, 3 male + 3 female), read-out: AUC0-t): 15.6 µg·h/mL
Cmax (po, 20 mg/kg, 20 mg/kg i.g. single dose, all mice (Totol, 3 male + 3 female), read-out: Cmax): 9.61 ± 3.11 µg/mL
Tmax (po, 20 mg/kg, 20 mg/kg i.g. single dose, all mice (Totol, 3 male + 3 female), read-out: Tmax): 0.458 ± 0.292 h
half-life (po, 20 mg/kg, 20 mg/kg i.g. single dose, all mice (Totol, 3 male + 3 female), read-out: t1/2 (converted)): 0.699 h
bioavailability (po, 40 mg/kg, 40 mg/kg i.g. single dose vs 5 mg/kg i.v., one value for the dose, read-out: F (absolute bioavailability)): 40.2%
AUC(0-t) (po, 40 mg/kg, 40 mg/kg i.g. single dose, all mice (Totol, 3 male + 3 female), read-out: AUC0-t): 21.7 µg·h/mL
Cmax (po, 40 mg/kg, 40 mg/kg i.g. single dose, all mice (Totol, 3 male + 3 female), read-out: Cmax): 12.4 ± 4.12 µg/mL
Tmax (po, 40 mg/kg, 40 mg/kg i.g. single dose, all mice (Totol, 3 male + 3 female), read-out: Tmax): 1.58 ± 1.28 h
bioavailability (po, 80 mg/kg, 80 mg/kg i.g. single dose vs 5 mg/kg i.v., one value for the dose, read-out: F (absolute bioavailability)): 64.7%
AUC(0-inf) (po, 80 mg/kg, 80 mg/kg i.g. single dose, all mice (Totol, 3 male + 3 female)): 70.9 µg·h/mL
AUC(0-t) (po, 80 mg/kg, 80 mg/kg i.g. single dose, all mice (Totol, 3 male + 3 female), read-out: AUC0-t): 70 µg·h/mL
Cmax (po, 80 mg/kg, 80 mg/kg i.g. single dose, all mice (Totol, 3 male + 3 female), read-out: Cmax): 17.1 ± 6.29 µg/mL
Tmax (po, 80 mg/kg, 80 mg/kg i.g. single dose, all mice (Totol, 3 male + 3 female), read-out: Tmax): 1.5 ± 1.34 h
half-life (po, 80 mg/kg, 80 mg/kg i.g. single dose, all mice (Totol, 3 male + 3 female), read-out: t1/2 (converted)): 2.4 h
bioavailability (po, 80 mg/kg, single oral doses 20, 40, 80 mg/kg, read-out: absolute (oral) bioavailability, mean over single oral doses): 54.2%
bioavailability (po, 80 mg/kg, single oral doses 20, 40, 80 mg/kg, read-out: absolute (oral) bioavailability, range over single oral doses): 40.2 to 64.7%
AUC(0-t) (po, after oral dosing from 20 to 80 mg/kg, mouse plasma, read-out: AUC0-t, range over oral doses): 15.6 to 70 µg·h/mL
Cmax (po, after oral dosing from 20 to 80 mg/kg, mouse plasma, read-out: Cmax, range over oral doses): 8.75 to 12.9 µg/mL
Tmax (po, after oral gavage, mouse plasma, read-out: mean Tmax, range over oral doses): 0.458 to 1.58 h
Tmax (po, oral 20 to 80 mg/kg pooled, mouse plasma, n=6, read-out: Tmax, post-oral): 0.79 ± 0.36 h
half-life (po, oral 20 to 80 mg/kg pooled, mouse plasma, n=6, read-out: t1/2, post-oral (converted)): 1.59 ± 0.853 h
MRT inf (po, 20 mg/kg i.g. single dose, all mice (Totol, 3 male + 3 female), read-out: MRT0-∞): 1.64 h
SMILES: OCCn1cc(-c2ccc(N3CCC([C@H]4c5c(F)cccc5-c5cncn54)CC3)cc2)cn1 [SHR9146]
